This is an account of results in US12077503B2, “Substituted cyclic amides and their use as herbicides” (FMC CORPORATION, priority 2015, dated 2024).

What all share (type): in vivo
Test [1] concerns Kochia (Kochia scoparia). The experiment in a line: Test A postemergence. The following applies: Bassia scoparia, post-emergence, 240 h; for pest or weed control at 125 g/ha: 125 g ai/ha. Put shortly:
(§1)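 Ratings of 0 (no effect) to 100 (complete control) come from visual comparison with untreated controls roughly 10 d after treatment. Test chemicals, formulated in a non-phytotoxic solvent mixture with surfactant, were applied either as a preemergence directed soil spray on seeded soil or postemergence to one- to two-leaf plants 2 to 10 cm tall.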

Test [2] concerns wheat (Triticum aestivum). The test can be described thus: Test A postemergence. The following applies: Triticum aestivum, post-emergence, 240 h, 125 g ai/ha. Put shortly:
as §1

In test [3] the test system is giant foxtail (Setaria faberii). The experiment in a line: Test A postemergence. The following applies: Setaria faberi, post-emergence, 240 h; for pest or weed control at 125 g/ha: 125 g ai/ha. Put shortly: as §1
Test [4] has as its system blackgrass (Alopecurus myosuroides). The experiment in a line: Test A postemergence. The settings on record: Alopecurus myosuroides, post-emergence, 240 h, 125 g ai/ha, Postemergence; visual injury after approximately 10 d; 0 to 100 scale where 0 is no effect and 100 is complete control; read-out: Plant response rating, Blackgrass. Put shortly:
as §1

The subject of test [5] is Galium (catchweed bedstraw, Galium aparine). The experiment in a line: Test A postemergence. The following applies: Galium, post-emergence, 240 h; for pest or weed control at 125 g/ha: 125 g ai/ha. Put shortly: as §1
For the next test, the system named is corn (Zea mays). The test can be described thus: Test A postemergence. The settings on record: Zea mays, post-emergence, 240 h; for Corn plant response rating (crop injury, 0 = no effect, 100 = complete kill) at 125 g/ha: Postemergence, visual injury after approximately 10 d, 0 to 100 scale where 0 is no effect and 100 is complete control. Put shortly: as §1
Test [6] relates to ragweed (common ragweed, Ambrosia elatior). The experiment in a line: Test A postemergence. The following applies: Ambrosia artemisiifolia, post-emergence, 240 h, 125 g ai/ha. Put shortly: as §1
In test [7] the test system is ryegrass, Italian (Italian ryegrass, Lolium multiflorum). The experiment in a line: Test A postemergence. The settings on record: Lolium multiflorum, post-emergence, 240 h, 125 g ai/ha. Put shortly:
as §1

The subject of test [8] is barnyardgrass (Echinochloa crus-galli). The experiment in a line: Test A preemergence. The following applies: Echinochloa crus-galli, pre-emergence, 240 h; for pest or weed control at 125 g/ha: 125 g ai/ha, Preemergence, visual injury rating after approximately 10 d, read-out: Barnyardgrass plant response rating (0 to 100 scale, 0 is no effect, 100 is complete control); for pest or weed control at 500 g/ha: 500 g ai/ha, preemergence, visual injury rating about 10 d after treatment, 0 to 100 scale (0 no effect, 100 complete control), read-out: Barnyardgrass plant response rating. Put shortly: as §1

Test [9] relates to Kochia (Kochia scoparia). The test can be described thus: Test A preemergence. The following applies: Bassia scoparia, pre-emergence, 240 h; for pest or weed control at 125 g/ha: 125 g ai/ha, Preemergence, visual injury rating after approximately 10 d, read-out: Kochia plant response rating (0 to 100 scale, 0 is no effect, 100 is complete control); for pest or weed control at 500 g/ha: 500 g ai/ha, preemergence, visual injury rating about 10 d after treatment, 0 to 100 scale (0 no effect, 100 complete control), read-out: Kochia plant response rating. Put shortly: as §1

In test [10] the test system is pigweed (Amaranthus retroflexus). The experiment in a line: Test A preemergence. The following applies: Amaranthus retroflexus, pre-emergence, 240 h; for pest or weed control at 125 g/ha: 125 g ai/ha, Preemergence, visual injury rating after approximately 10 d, read-out: Pigweed plant response rating (0 to 100 scale, 0 is no effect, 100 is complete control); for pest or weed control at 500 g/ha: 500 g ai/ha, preemergence, visual injury rating about 10 d after treatment, 0 to 100 scale (0 no effect, 100 complete control), read-out: Pigweed plant response rating.

The subject of test [11] is giant foxtail (Setaria faberii). The test can be described thus: Test A preemergence. The settings on record: Setaria faberi, pre-emergence, 240 h; for pest or weed control at 125 g/ha: 125 g ai/ha, Preemergence, visual injury rating after approximately 10 d, read-out: Foxtail, Giant plant response rating (0 to 100 scale, 0 is no effect, 100 is complete control); for pest or weed control at 500 g/ha: 500 g ai/ha, preemergence, visual injury rating about 10 d after treatment, 0 to 100 scale (0 no effect, 100 complete control), read-out: Foxtail, Giant plant response rating. Put shortly:
as §1

Test [12] concerns ragweed (common ragweed, Ambrosia elatior). The experiment in a line: Test A preemergence. The following applies: Ambrosia artemisiifolia, pre-emergence, 240 h; for pest or weed control at 125 g/ha: 125 g ai/ha, Preemergence, visual injury rating after approximately 10 d, read-out: Ragweed plant response rating (0 to 100 scale, 0 is no effect, 100 is complete control); for pest or weed control at 500 g/ha: 500 g ai/ha, preemergence, visual injury rating about 10 d after treatment, 0 to 100 scale (0 no effect, 100 complete control), read-out: Ragweed plant response rating. An outline of the steps: as §1

In test [13] the test system is ryegrass, Italian (Italian ryegrass, Lolium multiflorum). The experiment in a line: Test A preemergence. The following applies: Lolium multiflorum, pre-emergence, 240 h; for pest or weed control at 125 g/ha: 125 g ai/ha, Preemergence, visual injury rating after approximately 10 d, read-out: Ryegrass, Italian plant response rating (0 to 100 scale, 0 is no effect, 100 is complete control); for pest or weed control at 500 g/ha: 500 g ai/ha, preemergence, visual injury rating about 10 d after treatment, 0 to 100 scale (0 no effect, 100 complete control), read-out: Ryegrass, Italian plant response rating. Put shortly:
as §1

Test [14] concerns barnyardgrass (Echinochloa crus-galli). The experiment in a line: Test A postemergence. The settings on record: Echinochloa crus-galli, post-emergence, 240 h, postemergence, approx. 10 d. Put shortly: as §1
[15] abbreviates: Postemergence, visual injury after approximately 10 d, 0 to 100 scale where 0 is no effect and 100 is complete control, read-out: Plant response rating, Kochia.
Where [16] appears, read: Postemergence, visual injury after approximately 10 d, 0 to 100 scale where 0 is no effect and 100 is complete control, read-out: Plant response rating, Wheat.
Where [17] appears, read: Postemergence, visual injury after approximately 10 d, 0 to 100 scale where 0 is no effect and 100 is complete control, read-out: Plant response rating, Foxtail, Giant.
Setting [18] is: Postemergence, visual injury after approximately 10 d, 0 to 100 scale where 0 is no effect and 100 is complete control, read-out: Plant response rating, Galium.
Where [19] appears, read: Postemergence, visual injury after approximately 10 d, 0 to 100 scale where 0 is no effect and 100 is complete control, read-out: Plant response rating, Ragweed.
The mark [20] stands for this setting: Postemergence, visual injury after approximately 10 d, 0 to 100 scale where 0 is no effect and 100 is complete control, read-out: Plant response rating, Ryegrass, Italian.

Read-outs that look alike come from different tables or passages of the source.

Consider `CSc1ccccc1NC(=O)[C@H]1C(=O)NC[C@@H]1c1cc(F)cc(Cl)c1` [Compound 977], for which the pest or weed control at 125 g/ha in the test on Kochia (Kochia scoparia) [1] (setting [15]) is 70%; in test [3] (setting [17]) it was 90%; in test [4], 0%; in test [5] (setting [18]), 40%; in test [6] (setting [19]) it was 20%; in test [7] (setting [20]), 0%. Further, the pest or weed control at 125 g/ha amounted to 90% in test [8]; 90% in the test with Kochia (Kochia scoparia) [9]; 40% in [10]; 90% in test [11]; 70% in test [12]; 0% in test [13]. Further, in test [2] (setting [16]), the plant injury at 125 g/ha was found to be 0%. Further, in the test with corn (Zea mays) (125 g ai/ha), the Corn plant response rating (crop injury, 0 = no effect, 100 = complete kill) at 125 g/ha was determined as 0%. In addition, the pest or weed control at 500 g/ha in test [8] came out at 90%; in the test with Kochia (Kochia scoparia) [9], 90%; in [10], 70%; in [11], 90%; in test [12] it was 100%; in [13] it was 40%.

For the compound `CN1C[C@H](c2cc(F)cc(Cl)c2)[C@@H](C(=O)Nc2ccccc2S(C)(=O)=O)C1=O` [Compound 979], the pest or weed control at 125 g/ha was 30% in the test with Kochia (Kochia scoparia) [1] (setting [15]); 90% in [3] (setting [17]); 60% in test [4]; 40% in [5] (setting [18]); 20% in [6] (setting [19]); 20% in [7] (setting [20]). The pest or weed control at 125 g/ha in test [8] is 90%; with Kochia (Kochia scoparia) [9] it was 50%; in [10], 40%; in test [11], 90%; in [12] it was 50%; in test [13] it was 50%. The plant injury at 125 g/ha in test [2] (setting [16]) is 50%. The compound further returned a Corn plant response rating (crop injury, 0 = no effect, 100 = complete kill) at 125 g/ha in the test on corn (Zea mays) (125 g ai/ha) of 30%. Besides, the pest or weed control at 500 g/ha in [8] came to 90%; in the test with Kochia (Kochia scoparia) [9] it was 90%; in test [10], 90%; in test [11], 100%; in [12], 90%; in test [13], 60%.

As to `Cc1cc([C@H]2CNC(=O)[C@@H]2C(=O)Nc2ccccc2Cl)ccc1C(F)(F)F` [Compound 1044], the pest or weed control at 125 g/ha in test [14] (125 g ai/ha, visual injury on 0 to 100 scale (0 no effect, 100 complete control), read-out: Barnyardgrass plant response rating) was 70%; in the test with Kochia (Kochia scoparia) [1] (postemergence, visual injury on 0 to 100 scale (0 no effect, 100 complete control), approx. 10 d, read-out: Kochia plant response rating), 0%; in test [3] (postemergence, visual injury on 0 to 100 scale (0 no effect, 100 complete control), approx. 10 d, read-out: Foxtail, Giant plant response rating) it was 60%; in test [5] (postemergence, visual injury on 0 to 100 scale (0 no effect, 100 complete control), approx. 10 d, read-out: Galium plant response rating), 40%; in test [6] (postemergence, visual injury on 0 to 100 scale (0 no effect, 100 complete control), approx. 10 d, read-out: Ragweed plant response rating), 20%; in test [7] (postemergence, visual injury on 0 to 100 scale (0 no effect, 100 complete control), approx. 10 d, read-out: Ryegrass, Italian plant response rating), 0%. Further, the pest or weed control at 125 g/ha turned out to be 90% in test [8]; 0% in the test on Kochia (Kochia scoparia) [9]; 0% in test [10]; 70% in test [11]; 0% in [12]; 0% in [13]. The pest or weed control at 500 g/ha in test [14] (500 g ai/ha, visual injury, 0 to 100 scale (0 no effect, 100 complete control), read-out: Plant response rating, Barnyardgrass) was determined as 80%; in the test with Kochia (Kochia scoparia) [1] (500 g ai/ha, postemergence, visual injury, 0 to 100 scale (0 no effect, 100 complete control), approx. 10 d, read-out: Plant response rating, Kochia), 50%; in test [3] (500 g ai/ha, postemergence, visual injury, 0 to 100 scale (0 no effect, 100 complete control), approx. 10 d, read-out: Plant response rating, Foxtail, Giant), 90%; in test [5] (500 g ai/ha, postemergence, visual injury, 0 to 100 scale (0 no effect, 100 complete control), approx. 10 d, read-out: Plant response rating, Galium) it was 60%; in [8] it was 90%; in the test with Kochia (Kochia scoparia) [9], 50%. Moreover, the pest or weed control at 500 g/ha was 30% in test [10], 90% in test [11], 30% in test [12] and 50% in test [13]. In addition, the plant injury at 125 g/ha was determined as 0% in [2] (postemergence, visual injury on 0 to 100 scale (0 no effect, 100 complete control), approx. 10 d, read-out: Wheat plant response rating) and 0% in the test with corn (Zea mays) (125 g ai/ha, postemergence, visual injury on 0 to 100 scale (0 no effect, 100 complete control), approx. 10 d, read-out: Corn plant response rating). Also, in the test with corn (Zea mays) (500 g ai/ha, postemergence, visual injury, 0 to 100 scale (0 no effect, 100 complete control), approx. 10 d), the Corn plant response rating (crop injury, 0 = no effect, 100 = complete kill) at 500 g/ha came out at 50%.
